According to patent US20200289430A1, “Antibacterial Treatments Using Cannabinoids” (priority 2017, published 2020):
≈ marks a conversion by molar mass, not a printed value. Where a name gives a salt, the structure may show the parent alone. Read-outs that look alike come from different tables or passages of the source.

Columns and labels:
Format in all cases: cell-based
[1] = system: Propionibacterium acnes; experiment: Minimum Inhibitory Concentration (MIC), Macrodilution Broth Method, Propionibacterium acnes ATCC strains; details: Cutibacterium acnes
Text: (§1) This study, a Minimum Inhibitory Concentration (MIC), will be performed based upon the Macrodilution Broth Method outlined in CLSJ Document M07-A 10, Methods for Dilution Antimicrobial Susceptibility Tests for Bacteria that Gro111 Aerobically, Tenth Edition, and CLSI Document MI I-A8, Methods for Antimicrobial Susceptibility Testing of Anaerobic Bacteria, Eighth Edition.
(§2) The Test Material will be evaluated versus at total of 17 different microorganism strains: 7 strains of Methicillin resistant Staphylococcus aureus, 6 stains of Propionibacterium acnes, 2 strains of Erythromycin resistant Propionibacterium acnes, and 2 strains of Tetracycline resistant Propionibacterium acnes. Positive Control Material #1 will be evaluated versus 2 strains of Erythromycin resistant Propionibacterium acnes. Positive Control Material #2 will be evaluated versus 2 strains of Tetracycline resistant Propionibacterium acnes.
(§3) A suspension of each challenge strain will be prepared and exposed to each of 10 doubling dilutions of the test material or positive control materials prepared in the appropriate nutrient broth (reference Table I). Following incubation, the Minimum Inhibitory Concentration (MIC) of the test material and positive control materials will be determined visually and documented.
(§4) 2 to 6 days prior to testing, sterile tubes containing Reinforced Clostridial Medium (RCM) will be inoculated from lyophilized vials or cryogenic stock cultures containing these species. The broth cultures will be incubated anaerobically at 35±2° C. for 1 to 3 days, or until sufficient growth is observed.
(§5) The purity of each broth culture will be verified by preparing duplicate isolation streaks on Chocolate Agar with Enrichment (CAE), and incubating one plate aerobically and one anaerobically at 35±2° C.
(§6) Following incubation, initial suspensions containing approximately 10^8 CFU/mL will be prepared for each species by centrifuging the broth culture tubes, combining the resulting pellets, and resuspending them in additional broth.
(§7) Final Challenge Suspensions containing approximately 1×10^6 CFU/mL of each microorganism strain will be prepared by transferring aliquots of the 10^8 CFU/mL initial suspensions into separate containers containing a volume of the appropriate broth media sufficient to the needs of testing.
(§8) On each day of testing, the Test Material will be diluted (v/v) using the appropriate broth media to produce an intermediate solution containing […] of Cannabidiol.
(§9) A series of 1:2 (v/v) dilutions of intermediate Test Material solution will be prepared using the appropriate broth media, to produce active concentrations of 100 μg/mL, 50 μg/mL, 25 μg/mL, 12.5 μg/mL, 6.25 μg/mL, 3.125 μg/mL, 1.562 μg/mL, 0.781 μg/mL, 0.390 μg/mL, and 0.195 μg/mL.
(§10) A 1.0 mL aliquot of the intermediate Test Material solution (100 μg/mL), and 1.0 mL aliquots of each of the 9 test material dilutions prepared will be transferred to separate sterile test tubes. For each challenge microorganism, three sets of test tubes will be prepared for the Test Material.
(§11) A 1.0 mL aliquot of a challenge suspension containing approximately 1×10^6 CFU/mL will be dispensed into each dilution tube in each series.
(§12) Following inoculation, final active Test Material concentrations of 50 μg/mL, 25 μg/mL, 12.5 μg/mL, 6.25 μg/mL, 3.125 ug/ml, 1.562 μg/mL, 0.781 μg/mL, 0.390 ug/ml, 0.195 μg/mL and 0.0976 μg/mL will be produced.
(§13) Each dilution tube will contain approximately 5×10^5 CFU/mL of the challenge microorganism.
Positive Control Tubes (Growth Controls) containing a 1.0 mL aliquot of the appropriate broth media, and a 1.0 mL aliquot of challenge suspension will be prepared using each microorganism strain.
Negative Control Tubes (Sterility Controls; no microbial inoculation) of each broth media will be prepared.
Following incubation, the tubes will be examined for growth of the challenge microorganism, as determined visually on the basis of turbidity.

[2] = system: Propionibacterium acnes Erythromycin Resistant Clinical Isolates; experiment: MIC, Macrodilution Broth Method, Erythromycin resistant P. acnes clinical isolates; details: for MIC: Cutibacterium acnes, read-out: Minimum Inhibitory Concentration (MIC); for Minimum Inhibitory Concentration (MIC): Erythromycin resistant P. acnes clinical isolate BSLI #281014Pa6
Text: as §1, §2, §3, §4, §5, §6, §7, §8
(§14) A series of 1:2 (v/v) dilutions of intermediate Test Material solution will be prepared using the appropriate broth media, to produce active concentrations of 100 μg/mL, 50 μg/mL, 25 μg/mL, 12.5 μg/mL, 6.25 μg/mL, 3.125 μg/mL, 1.562 μg/mL, 0.781 μg/mL, 0.390 μg/mL, and 0.195 μg/mL. […]

[3] = system: Propionibacterium acnes Tetracycline Resistant Clinical Isolates; experiment: microbe, parasite or virus in culture; details: Cutibacterium acnes
Text: as §1, §2, §3, §4, §5, §6, §7, §8, §14

[4] = system: Methicillin resistant Staphylococcus aureus; experiment: microbe, parasite or virus in culture
Text: as §1, §2, §3
2 to 4 days prior to testing, inocula from lyophilized vials or cryogenic stock cultures containing each species will be suspended in 0.9% Sodium Chloride Irrigation, USP (SCI), inoculated onto the surface of Tryptic Soy Agar (TSA) contained in Petri plates, and incubated at 35±2° C. for 24 to 48 hours, or until sufficient growth is observed.
24 to 48 hours prior to testing, growth from the agar plates previously prepared will be suspended in SCI.
The purity of each suspension will be verified by preparing isolation streaks of each culture on TSA. Aliquots of each suspension will then be spread-plated onto the surface of additional plates of TSA and incubated at 35±2° C. until sufficient growth is observed. This will produce lawns of the bacteria on the surface of the agar plates, and growth from these will be used to prepare the challenge suspensions.
Immediately prior to testing, an initial suspension of each species will be prepared in SCI by suspending the microorganisms from the solid media to achieve initial suspension concentrations of approximately 10^8 CFU/mL. The suspensions may be centrifuged, if deemed necessary, to achieve the desired concentration.
as §7, §8, §9, §10, §11, §12, §13

[5] = read-out: Minimum Inhibitory Concentration (MIC), Tetracycline resistant P. acnes clinical isolate BSLI #281014Pa2
[6] = read-out: Minimum Inhibitory Concentration (MIC), Tetracycline resistant P. acnes clinical isolate BSLI #281014Pa4

Compound | MIC ([1]; ATCC6919, Propionibacterium acnes ATCC #6919, anaerobic, RCM broth, read-out: Minimum Inhibitory Concentration (MIC)) [µg/mL] | MIC ([1]; ATCC6922, Propionibacterium acnes ATCC #6922, anaerobic, RCM broth, read-out: Minimum Inhibitory Concentration (MIC)) [µg/mL] | MIC ([1]; ATCC6923, Propionibacterium acnes ATCC #6923, anaerobic, RCM broth, read-out: Minimum Inhibitory Concentration (MIC)) [µg/mL] | MIC ([1]; ATCC11827, Propionibacterium acnes ATCC #11827, anaerobic, RCM broth, read-out: Minimum Inhibitory Concentration (MIC)) [µg/mL] | MIC ([1]; ATCC11828, Propionibacterium acnes ATCC #11828, anaerobic, RCM broth, read-out: Minimum Inhibitory Concentration (MIC)) [µg/mL] | MIC ([1]; ATCC51277, Propionibacterium acnes ATCC #51277, anaerobic, RCM broth, read-out: Minimum Inhibitory Concentration (MIC)) [µg/mL] | MIC ([1]; all P. acnes strains tested, including strains resistant to other antibiotics, read-out: MIC against Propionibacterium acnes (summary over all strains)) [µg/mL] | MIC [2] [µg/mL] | Minimum Inhibitory Concentration (MIC) [2] [µg/mL] | MIC [3, 5] [µg/mL] | MIC [3, 6] [µg/mL] | MIC ([4]; ATCC33592, read-out: Minimum Inhibitory Concentration (MIC)) [µg/mL] | MIC ([4]; ATCCBAA41, read-out: Minimum Inhibitory Concentration (MIC)) [µg/mL] | MIC ([4]; ATCCBAA42, read-out: Minimum Inhibitory Concentration (MIC)) [µg/mL] | MIC ([4]; ATCCBAA44, read-out: Minimum Inhibitory Concentration (MIC)) [µg/mL] | MIC ([4]; ATCCBAA1683, read-out: Minimum Inhibitory Concentration (MIC)) [µg/mL] | MIC ([4]; ATCCBAA2094, read-out: Minimum Inhibitory Concentration (MIC)) [µg/mL] | MIC ([4]; ATCCBAA2313, read-out: Minimum Inhibitory Concentration (MIC)) [µg/mL] | MIC ([4]; read-out: MIC against Staphylococcus aureus (summary over all strains)) [µg/mL]
C=C(C)[C@@H]1CCC(C)=C[C@H]1c1c(O)cc(CCCCC)cc1O [Cannabidiol] | 3.12 (≈ 9.94 µM) | 6.25 (≈ 19.9 µM) | 6.25 (≈ 19.9 µM) | 3.12 (≈ 9.94 µM) | 6.25 (≈ 19.9 µM) | 6.25 (≈ 19.9 µM) | 3.12 to 6.25 (≈ 9.94 to 19.9 µM) | 6.25 (≈ 19.9 µM) | 6.25 | 3.12 (≈ 9.94 µM) | 6.25 (≈ 19.9 µM) | 1.56 (≈ 4.97 µM) | 1.56 (≈ 4.97 µM) | 1.56 (≈ 4.97 µM) | 1.56 (≈ 4.97 µM) | 1.56 (≈ 4.97 µM) | 1.56 (≈ 4.97 µM) | 1.56 (≈ 4.97 µM) | ~1.56 (≈ 4.97 µM)
CN(C)[C@@H]1C(O)=C(C(N)=O)C(=O)[C@@]2(O)C(O)=C3C(=O)c4c(O)cccc4[C@@](C)(O)[C@H]3C[C@@H]12 [Tetracycline HCl, reference compound] | – | – | – | – | – | – | – | – | – | 64 | 128 | – | – | – | – | – | – | – | –
CC[C@H]1OC(=O)[C@H](C)[C@@H](O[C@H]2C[C@@](C)(OC)[C@@H](O)[C@H](C)O2)[C@H](C)[C@@H](O[C@@H]2O[C@H](C)C[C@H](N(C)C)[C@H]2O)[C@](C)(O)C[C@@H](C)C(=O)[C@H](C)[C@@H](O)[C@]1(C)O [Erythromycin, reference compound] | – | – | – | – | – | – | – | 2050 (≈ 2790 µM) | 2048 | – | – | – | – | – | – | – | – | – | –
